Test results published in patent publication US6462173B1, “Inhibitors of phosphoserine and phosphothreonine-proline-specific isomerases” (Max-Planck-Gesellschaft zur Forderung der, priority 1997, dated 2002).

Tests used:
[1] = system: MPM-2 antigens; assay: GST-Pin1 pull-down / depletion of MPM-2 antigens from HeLa cell extracts, MPM-2 immunoblotting; format: binding, human
Method: To detect Pin1-binding proteins, either HeLa cells were lysed in or Xenopus extracts were diluted in a buffer (buffer A) containing 50 mM Tris-HCl, pH 8.0, 200 mM NaCl, 100 mM NaF, 1 mM sodium orthovanadate, 10% glycerol, 1% Triton X100, 10 μg/ml aprotinin, 50 μg/ml phenylmethylsulfonyl fluoride and 1 mM DTT. The lysates were preclarified with boiled S. aureus bacteria (CalBiochem) and then incubated with 10 μl of agarose beads containing various GST-Pin1 proteins or control GST for 2 h at 4° C. The precipitated proteins were washed 5 times in the same buffer and subjected to immunoblotting analysis. Immunoprecipitation and immunoblotting analysis using MPM-2 antibody (Davis et al. 1983), which was kindly provided by J. Kuang, Pin1 antibodies (Lu et al., 1996, kindly provided by M. White or newly generated), anti-phospho.Tyr antibody (UBI), anti-Cdc25C (Ogg, et al., 1994) (from H. Piwnica-Worms and Santa Cruz Biotechnology), anti-Cdc27, anti-Plk1 (Zymed), anti-Cdc2 (Solomon, M. J., M. Glotzer, T. H. Lee, M. Philippe and M. W. Kirschner. Cell 63:1013-1024 (1991), anti-human Myt1, anti-human cyclin B1 and anti-Xenopus cyclin B were performed, as described previously in Lu and Hunter, 1995; Lu et al., 1996).
To determine whether GST-Pin1 can deplete MPM-2 antigens and to estimate what concentrations of Pin1 are required to completely deplete MPM-2 antigens, mitotic extracts were incubated with different amounts of GST-Pin1, followed by analyzing MPM-2 antigens remaining in the depleted supernatants. The total cellular Pin1 concentration in HeLa cells was estimated to be about 0.5 μM, based on immunoblotting analysis using anti-Pin1 antibodies with recombinant Pin1 protein as a standard.
To determine if the Pin1 mutants interact with mitotic phosphoproteins, GST-Pin1, -Pin1^R68,69A and -Pin1^H59A fusion proteins were incubated with interphase or mitotic HeLa cell extracts and associated proteins subjected to MPM-2 immunoblotting analysis. […] A few proteins including the most strongly reacting p55 band could still be recognized. […] Thus, mutating the residues that are implicated in binding either the substrate's putative phosphate group or the substrate's Pro residue abolish the ability of Pin1 to bind MPM-2 antigens.

[2] = system: Xenopus embryos; assay: Microinjection of Xenopus embryos, cell cycle block; format: in vivo
Method: Unfertilized eggs were incubated with sperm, dejellied, and 4 μM of the indicated protein (about 10 fold above the estimated endogenous levels) was injected in one cell of two cell stage embryos (30 embryos each protein). The injected embryos were allowed to develop at 18° C. to stage 8 and pictures were taken of typical embryos. The titration of Pin1 and the mutants was essentially as described above except that the indicated protein was injected into one cell of 4 cell stage (18 embryos each Pin1 concentration) to the indicated final concentration and allowed to develop for 3h. […] To be consistent, cell cycle blocked embryo's were scored as those that contained at least one cell on the injected side that was greater than 5 times larger than uninjected cells (FIG. 2).
To examine whether increasing the concentration of Pin1 has similar biological effects in Xenopus, Pin1 or Pin1 mutants were injected into one cell of 2 cell stage embryos and allowed the embryos to develop for 3 h (about 5 divisions). […] In contrast, the same extracts containing 40 μM of either BSA or the mutant Pin1 proteins entered mitosis by 70 to 80 min as detected by nuclear envelope breakdown, spindle formation and high histone H1 kinase activity. […]

Pin1: essential mitotic peptidyl-prolyl cis-trans isomerase, recombinant protein
depletion of MPM-2 antigens ([1]; 8 μM GST-Pin1, mitotic extracts): depleted the majority of MPM-2 antigens | binding of MPM-2 antigens ([1]; mitotic HeLa cell extracts, GST fusion proteins): specifically interacted with MPM-2 antigens | cleavage of injected cells ([2]; 4 μM final, one cell of 2 cell stage embryos, 3 h): failed to cleave or cleaved slowly | inhibition of the cell cycle ([2]; 10 μM, approximately 20 fold above estimated endogenous levels): completely inhibited the cell cycle
